Data from PubChem BioAssay (NCI).
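Test compounds were applied to cells in 96-well plates for 48 hours at 5 doses. Abbreviation: GI50, concentration required for 50% inhibition of growth. TGI marks complete inhibition of growth.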

How the values were obtained:
Test in all cases: NCI tumour cell line growth inhibition, 48 h
[1] = tested on: HOP-92 NSCLC
[2] = tested on: CCRF-CEM leukemia
[3] = tested on: NCI-H23 lung
[4] = tested on: HOP-62 NSCLC
[5] = tested on: RPMI-8226 leukemia
[6] = tested on: MCF7 breast
[7] = tested on: HL-60(TB) leukemia
[8] = tested on: PC-3 prostate
[9] = tested on: SF-295 CNS
[10] = tested on: IGROV1 ovarian

SMILES | GI50 [1] [µM] | TGI [1] [µM] | GI50 [2] [µM] | TGI [2] [µM] | GI50 [3] [µM] | TGI [3] [µM] | GI50 [4] [µM] | TGI [4] [µM] | GI50 [5] [µM] | TGI [5] [µM] | GI50 [6] [µM] | TGI [6] [µM] | GI50 [7] [µM] | TGI [7] [µM] | GI50 [8] [µM] | TGI [8] [µM] | GI50 [9] [µM] | TGI [9] [µM] | GI50 [10] [µM] | TGI [10] [µM]
Nc1ccccc1C#C/C=C\C#Cc1cccs1 | 6.4 | 36.6 | 0.295 | 2.2 | 14.3 | 41.2 | 11.2 | 33.2 | 1.25 | > 35.7 | 2.34 | > 100 | 0.696 | 12.3 | 4.48 | 27.3 | 11.3 | 46.1 | 6.36 | > 39.6
O=C1c2cccnc2C(=O)c2nc3cc(N4CCN(C5CC5)CC4)ccc3nc21 | 2.93 | 9.95 | 2.56 | 9.83 | 0.229 | 0.85 | 0.232 | 1.05 | 2.4 | 8.63 | 0.276 | 1.78 | 2.37 | 7.29 | 1.97 | 23.2 | 0.41 | 1.59 | 0.808 | 3.01
Cn1cccc1-c1cc(-c2cccs2)nc(N)c1C#N | > 100 | > 100 | > 100 | > 100 | > 100 | > 100 | > 100 | > 100 | > 100 | > 100 | > 100 | > 100 | > 100 | > 100 | > 100 | > 100 | > 100 | > 100 | > 100 | > 100
COC(=O)[C@H](C[C@H](Cc1ccccc1)NC(=O)c1csc([C@@H](C[C@H](C(C)C)N(C)C(=O)[C@@H](NC(=O)[C@H]2CCCCN2C)C(C)C)OC(C)=O)n1)NC(=O)OCc1ccccc1 | 0.00163 | > 9 | < 0.0009 | > 9 | 0.00111 | > 9 | < 0.0009 | > 9 | < 0.0009 | 2.34 | < 0.0009 | > 9 | < 0.0009 | 0.00178 | < 0.0009 | > 9 | 0.00128 | > 9 | 0.00119 | > 4.04
CC(C)c1cc(-c2n[nH]c(=O)n2-c2ccc3c(ccn3C)c2)c(O)cc1O | < 0.0169 | 0.0484 | < 0.0174 | > 40.5 | 0.0247 | 26.7 | 0.0794 | 31.8 | < 0.0218 | 31.3 | < 0.0161 | 17.3 | < 0.01 | 21.8 | < 0.0224 | 49.6 | < 0.0215 | 0.796 | < 0.0225 | 24.8
COc1ccc(OC)c(/C=C2\SC(=S)NC2=O)c1 | 16 | 55.4 | 42.4 | > 100 | 23.1 | 68.6 | 30.9 | > 100 | 36.7 | > 100 | 23.5 | > 100 | 58 | > 100 | 35 | > 100 | 42.8 | > 100 | 31.2 | > 100
O=C(O)/C=C\C(=O)N1C/C(=C\c2ccccc2Cl)C(=O)/C(=C/c2ccccc2Cl)C1 | 4.43 | 15.5 | 1.43 | 6.66 | 2.5 | 6.41 | 3.4 | 8.26 | 1.35 | 10.3 | 1.09 | 10.4 | 3.37 | 11.8 | 3.56 | 15.5 | 4.4 | 16.5 | 3.66 | 11.2
COC(=O)[C@@]1(C)CC[C@]2(C)CC[C@]3(C)C4=CC=C5C(=CC(=O)C(O)=C5C)[C@]4(C)[C@@H](O)C[C@@]3(C)[C@@H]2C1 | 11.6 | 23.2 | 2.73 | 11.9 | 13.5 | 28.4 | 13.3 | 25.9 | 5.17 | 27.7 | 11.3 | 23.9 | 9.68 | 28.9 | 8.7 | 19 | 13.2 | 28.4 | 6.73 | 19.1
CCOC(=O)c1cc(NS(=O)(=O)c2ccccc2)cc(C(=O)OCC)c1 | > 100 | > 100 | > 100 | > 100 | > 100 | > 100 | > 100 | > 100 | > 100 | > 100 | > 100 | > 100 | > 100 | > 100 | > 100 | > 100 | > 100 | > 100 | > 100 | > 100
COc1ccc2c(c1)cn1c3ccc(O)cc3nc(N)c21 | 1.06 | > 37 | 0.163 | > 50.9 | 0.394 | 17.7 | 0.205 | 8.18 | 1.75 | 12.8 | 0.615 | 4.99 | 0.765 | 31.3 | 0.761 | 13.4 | 0.203 | 4 | 0.176 | 6.59
Cc1ccc(-c2cn3ccnc3c(-c3ccc(Cl)cc3)n2)cc1 | 12.5 | > 93.2 | 0.122 | > 100 | 0.433 | 27.6 | 3.69 | > 68.6 | 0.207 | > 39.5 | 0.28 | 19.2 | 0.0856 | > 100 | 0.356 | > 100 | 0.0268 | 2.33 | 1.55 | > 83
